Reference: patent US10876058B2, “Method for prevention of biodeterioration of fuels” (priority 2013, dated 2020)
Residues, ends and D or L forms follow the SMILES beside them. No end group written: not given here. *: point of attachment. βNA = c1ccc2cc(N*)ccc2c1

How the values were obtained:
[1] = Stability in the presence of fuel; type: physicochemical; conditions: activity was preserved
From the text: Additional experimental results (see FIG. 10) confirm that the growth inhibition effect and the inactivity of efflux pump were effective for other bacteria, including Pseudomonas aeruginosa and Acinetobacter venetianus. The c-capped dipeptides were stable in the presence of fuel and activity was preserved.

[2] = tested on: Pseudomonas aeruginosa; assay: Efflux pump blocker growth inhibition, Pseudomonas aeruginosa (FIG. 10); type: cell-based; conditions: fuel present (FIG. 10)
Experimental: (§1) C-capped dipeptide efflux pump blocker, Phe-Arg β-naphthylamide dihydrochloride (MC-207,110) (Sigma Aldrich) was added to the fuel phase and the aqueous (minimal media M9, Bushnell-Haas, or water) phase of 1:1 fuel-minimal media mixtures containing environmental bacteria (Pseudomonas, Acinetobacter, Marinobacter, and Dietzia) at concentrations ranging from 1 to 1×10^9 cells/mL. Phe-Arg β-naphthylamide dihydrochloride was added to the fuel at concentrations of 0 μg/mL, 20 μg/mL, 40 μg/mL, 60 μg/mL, 80 μg/mL, and 100 μg/mL. Control experiments were performed by adding 0 μg/mL to 120 μg/mL of Phe-Arg β-naphthylamide to minimal media containing bacteria and glycerol as the energy source, but not fuel.
(§2) The antimicrobial effect of the efflux pump blocker was established daily by measuring growth through absorbance readings (OD600), DNA quantitation through qPCR, and colony counting techniques.

[3] = tested on: microbial growth in the aqueous phase; assay: Treatment solution administered to jet fuel, microbial growth in the aqueous phase (FIG. 12); type: cell-based; conditions: 80 μg/mL final in jet fuel; stock 25 mg/mL in absolute ethanol, DiEGME or water; initial and days one to three (FIG. 12)
Experimental: Treatment solutions were prepared, as described above, with 25 mg/mL efflux pump inhibitor in various solvents, including absolute ethanol, DiEGME, and water. The treatment solutions were administrated to jet fuel at a final concentration in fuel of 0 μg/mL, 40 μg/mL, and 80 μg/mL. FIG. 12 illustrates results of the 80 μg/mL treatment on initial measured microbial growth in the aqueous phase as well as microbial growth after one, two, and three days.

[4] = tested on: Acinetobacter venetianus; assay: Efflux pump blocker growth inhibition, Acinetobacter venetianus (FIG. 10); type: cell-based; conditions: fuel present (FIG. 10)
Experimental: as §1, §2

[5] = tested on: environmental bacteria (Pseudomonas, Acinetobacter, Marinobacter, and Dietzia); assay: Efflux pump blocker growth inhibition in 1:1 fuel-minimal media mixtures; type: cell-based; conditions: for bacterial growth inhibition: fuel present (FIGS. 8 and 10)
Experimental: as §1, §2

[6] = tested on: environmental bacteria (E. coli, Bacillus, and Pseudomonas); assay: Antimicrobial peptide growth inhibition in 1:1 fuel-growth media mixtures; type: cell-based; conditions: for bacteria growth after addition to fuel: added to fuel (aqueous and fuel phase)
Experimental: (§3) Protegrin-1 and Magainin-2 antimicrobial peptides were added individually to the fuel phase and the aqueous (minimal media M9, Bushnell-Haas, or water) phase of 1:1 fuel-growth media mixtures containing environmental bacteria (E. coli, Bacillus, and Pseudomonas) at concentrations ranging from 1 to 1×10^9 cells/mL. Magainin 1 and 2 were obtained from Sigma-Aldrich (St. Louis, Mo.). Protegrin-1 was obtained from AnaSpec (Fremont, Calif.) or produced from a transgenic construct containing a fusion between green fluorescent protein (“GFP”) and the Protegrin-1 coding gene. The GFP-Protegrin fusion was purified by affinity chromatography and Protegrin cleaved from the fusion for use, as pure, or as a fusion in the bioassays.
(§4) The antimicrobial peptides were added at the following concentrations: 0 μg/mL, 1 μg/mL, 2.5 μg/mL, 5 μg/mL, 10 μg/mL, 20 μg/mL, 50 μg/mL, 75 μg/mL, 100 μg/mL, and 125 μg/mL in the presence and absence of fuel. Experiments using minimal media with bacteria in the presence of fuel were designed to measure the effect of fuel in combination with the antimicrobial peptide control. Control experiments contained glycerol instead of fuel as the energy source.
(§5) The antimicrobial effect of the peptides was measured every 24 hours for four days after inoculation by measuring growth through absorbance readings (OD600), DNA quantitation through qPCR, and colony counting techniques.

[7] = tested on: Pseudomonas; assay: Antimicrobial peptide growth inhibition, Pseudomonas (FIG. 7); type: cell-based; conditions: absence of fuel
Experimental: as §3, §4, §5

[8] = Partition from fuel into the aqueous phase; type: physicochemical; conditions: added to fuel (aqueous and fuel phase)
[9] = tested on: E. coli; assay: Antimicrobial peptide growth inhibition, E. coli (FIG. 6); type: cell-based; conditions: absence of fuel
Experimental: as §3, §4, §5

Row | Compound | stability in the presence of fuel [1] | growth inhibition effect and inactivity of efflux pump [2] | microbial growth in the aqueous phase [3] | growth inhibition effect and inactivity of efflux pump [4] | bacterial growth inhibition ([5]; 20 μg/mL) | bacterial growth inhibition ([5]; 40 μg/mL) | bacterial growth inhibition ([5]; 60 μg/mL) | bacterial growth inhibition ([5]; 80 μg/mL) | bacterial growth inhibition ([5]; 100 μg/mL) | inhibitory effect on bacterial growth ([5]; fuel not present (glycerol control), concentrations as high as 100 μg/mL (FIG. 9)) | concentration giving complete growth inhibition for up to 17 days ([5]; fuel present, up to 17 days (FIG. 11)) | microbial growth and proliferation under periodic administration ([5]; low concentration (less than 20 μg/mL) every 3 to 4 days) | bacteria growth after addition to fuel [6] | concentration that prevented microbial growth ([6]; peptide added directly to the fuel phase) | concentration required to completely inhibit growth [7] [µg/mL] | partition between fuel and aqueous phase [8] | concentration required to completely inhibit growth [9] [µg/mL] | concentration required to completely inhibit bacteria growth ([6]; absence of fuel (FIG. 4)) [µg/mL]
1 | Cl.Cl.N=C(N)NCCC[C@H](NC(=O)[C@@H](N)Cc1ccccc1)C(=O)Nc1ccc2ccccc2c1 [c-capped dipeptide, Phe-Arg β-naphthylamide dihydrochloride] (H-Phe-Arg-βNA) | stable | effective | significantly decreased microbial growth | effective | Partial bacterial growth inhibition | complete growth inhibition | complete growth inhibition | complete growth inhibition | complete growth inhibition | not observed | greater than 80 μg/mL | prevented microbial growth and proliferation |  |  |  |  |  | 
2 | Protegrin-1 (RGGRLCYCRRRFCVCVGR; ends and bridges not checked; cysteine pairing not given here; UniProt P32194 131-148, looked up) [18 amino acid cysteine-rich β-sheet antimicrobial peptide; from AnaSpec or cleaved from a GFP-Protegrin fusion] |  |  |  |  |  |  |  |  |  |  |  |  | inhibited bacteria growth | less than or equal to 1 μg/mL | 5 | partitioned into the aqueous phase | 5 | 
3 | Magainin-2 |  |  |  |  |  |  |  |  |  |  |  |  | inhibited bacteria growth |  |  | partitioned into the aqueous phase |  | 125
